Assays:
[1] = test system: neuro-2a (mouse neuroblastoma cells); assay: Action on neuro-2a: proportion of cells containing outgrown neurites; type: cell-based; details: mean ± S.D.
In short: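 Read-out is the percentage of neurite-bearing cells (neurite ≥2× long cell diameter), counted microscopically over more than 200 cells per well. Before fixation and staining, neuro-2a cells (1,000/well, DMEM + 10% FCS) were cultured for one day at 37 °C; up to six compound concentrations, three runs each.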

[2] = test system: NS-20Y (mouse neuroblastoma cells); assay: Activity on NS-20Y cells: appearance of neurites; type: cell-based
In short: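 Mouse neuroblastoma NS-20Y cells were grown in polyornithine-coated dishes in DMEM with 10 % FCS, 100 units/ml penicillin G sodium and 100 micrograms/ml streptomycin sulfate, at 37° C under 5 % carbon dioxide, and exposed to compound. Cells were fixed with 4 % glutaraldehyde, stained with 0.05 % methylene blue, and the fraction bearing neurites at least twice the cell's long diameter was counted microscopically.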

[3] = Acute toxicity on mice; type: in vivo; details: mouse, in vivo, ip, 24 hours after administration; read-out: Estimated LD50
Procedure: The acute toxicity of the compounds of the invention was examined by the following method.
Male ddy-strain 5-week old mice, 4-6- per group, were used as experimental animals. Each of the compounds was intraperitoneally (i.p.), and the toxicity of the compound was assessed 24 hours after the administration.

Compound	Number of cells having neurites with a length at least two times the diameter of each cell/total number of cells ([1]; 0.03 mM)	Number of cells having neurites with a length at least two times the diameter of each cell/total number of cells ([1]; 0.1 mM)	LD50 at 24 h [3]	Number of cells having neurites with a length at least two times the diameter of each cell/total number of cells ([1]; 0.3 mM)	Number of cells having neurites with a length at least two times the diameter of each cell/total number of cells ([1]; 1 mM)	Number of cells in which neurites appeared/total number of cells ([2]; 24 hours, 0.1 mM)	Number of cells in which neurites appeared/total number of cells ([2]; 48 hours, 0.1 mM)	further results
CN(C(=O)C1CCCCC1)c1ccnc(N2CCC(c3ccccc3)CC2)n1 [Compound 232]	3.9 ± 1.8%	18.7 ± 5.2%	> 1000 mg/kg					Number of cells in which neurites appeared/total number of cells ([2]; 24 hours, 0.025 mM): 2/50; Number of cells in which neurites appeared/total number of cells ([2]; 48 hours, 0.01 mM): 2/49
CN(C(=O)c1ccc(Cl)cc1)c1ccnc(N2CCC(c3ccccc3)CC2)n1 [Compound 240]	19.8 ± 5.7%	38.7 ± 4.5%	> 1000 mg/kg	33.2 ± 0.9%	30.9 ± 5.9%			Number of cells in which neurites appeared/total number of cells ([2]; 24 hours, 0.2 mM): 4/50; Number of cells in which neurites appeared/total number of cells ([2]; 48 hours, 0.2 mM): 3/50
CN(C(=O)c1ccc([N+](=O)[O-])cc1)c1ccnc(N2CCC(c3ccccc3)CC2)n1 [Compound 264]		5.2 ± 3.1%	500 to 1000 mg/kg	8.7 ± 1.6%	15.2 ± 3.2%			Number of cells having neurites with a length at least two times the diameter of each cell/total number of cells ([1]; 3 mM): 7.2 ± 1.8%; Number of cells in which neurites appeared/total number of cells ([2]; 24 hours, 0.4 mM): 8/48; Number of cells in which neurites appeared/total number of cells ([2]; 48 hours, 0.4 mM): 4/50
COc1ccc(C(=O)N(C)c2ccnc(N3CCC(c4ccccc4)CC3)n2)cc1 [Compound 272]	4.8 ± 1.3%	30.9 ± 2.8%	> 1000 mg/kg	15.9 ± 0.5%	17.0 ± 4.3%	33/50	17/50	Number of cells in which neurites appeared/total number of cells ([2]; 24 hours, 0.2 mM): 24/50
COc1cc(C(=O)N(C)c2ccnc(N3CCC(c4ccccc4)CC3)n2)cc(OC)c1OC [Compound 280]	4.5 ± 1.2%	17.2 ± 1.3%	500 to 1000 mg/kg	13.4 ± 3.5%	17.4 ± 2.6%		8/53	Number of cells in which neurites appeared/total number of cells ([2]; 24 hours, 0.2 mM): 3/50
CN(C(=O)c1ccc(-c2ccccc2)cc1)c1ccnc(N2CCC(c3ccccc3)CC2)n1 [Compound 288]	1.4 ± 0.1%	3.3 ± 0.9%	500 to 1000 mg/kg	3.8 ± 1.9%	5.1 ± 2.7%	2/52	2/50	
CN(C(=O)c1ccccc1)c1ccnc(N2CCC(Cc3ccccc3)CC2)n1 [Compound 304]		38.1 ± 1.6%	> 1000 mg/kg	15.3 ± 6.3%		40/50		Number of cells in which neurites appeared/total number of cells ([2]; 48 hours, 0.01 mM): 3/50
CC(=O)N(C)c1ccnc(N2CCCc3ccccc32)n1 [Compound 320]		7.2 ± 0.2%	> 1000 mg/kg	8.5 ± 1.1%		8/50	6/50	
CN(C(=O)c1ccccc1)c1ccnc(N2CCCc3ccccc32)n1 [Compound 328]	10.2 ± 8.2%	28.0 ± 6.8%	> 1000 mg/kg	10.6 ± 3.4%		32/50	12/51	Number of cells having neurites with a length at least two times the diameter of each cell/total number of cells ([1]; 0.01 mM): 6.6 ± 0.5%; Number of cells in which neurites appeared/total number of cells ([2]; 48 hours, 0.025 mM): 8/50
CN(C(=O)c1ccccc1)c1ccnc(N2CCN(c3ccccc3)CC2)n1 [Compound 360]	6.5 ± 0.7%	10.0 ± 0.7%	> 1000 mg/kg			18/50	4/50	Number of cells in which neurites appeared/total number of cells ([2]; 24 hours, 0.02 mM): 8/50
CN(C(=O)c1ccccc1)c1ccnc(N2CCN(Cc3ccccc3)CC2)n1 [Compound 368]	3.5 ± 0.5%	9.0 ± 1.8%	500 to 1000 mg/kg			14/50	5/50	Number of cells in which neurites appeared/total number of cells ([2]; 48 hours, 0.05 mM): 8/51
CN(C(=O)c1ccccc1)c1ccnc(N2CCN(C(c3ccccc3)c3ccc(Cl)cc3)CC2)n1 (stereo not shown) [Compound 376]	13.6 ± 1.2%	14.7 ± 1.5%	500 to 1000 mg/kg	17.2 ± 1.4%	16.4 ± 3.0%		2/50	Number of cells in which neurites appeared/total number of cells ([2]; 24 hours, 0.2 mM): 2/50
CC(=O)N(C)c1cc(C)nc(N2CCC(c3ccccc3)CC2)n1 [Compound 392]		14.6 ± 6.0%	500 to 1000 mg/kg	30.9 ± 5.7%	23.8 ± 4.2%	8/50	3/43	Number of cells having neurites with a length at least two times the diameter of each cell/total number of cells ([1]; 3 mM): 11.1 ± 9.7%; Number of cells in which neurites appeared/total number of cells ([2]; 48 hours, 0.05 mM): 6/51
Cc1cc(N(C)C(=O)c2ccccc2)nc(N2CCC(c3ccccc3)CC2)n1 [Compound 400]			500 to 1000 mg/kg	11.4 ± 4.3%	16.0 ± 2.7%	9/50	3/50	Number of cells in which neurites appeared/total number of cells ([2]; 24 hours, 0.4 mM): 30/53; Number of cells in which neurites appeared/total number of cells ([2]; 48 hours, 0.4 mM): 3/48
Cc1cnc(N2CCC(c3ccccc3)CC2)nc1N(C)C(=O)c1ccccc1 [Compound 424]	4.5 ± 1.4%	7.6 ± 1.3%	> 1000 mg/kg					Number of cells in which neurites appeared/total number of cells ([2]; 24 hours, 0.4 mM): 16/50; Number of cells in which neurites appeared/total number of cells ([2]; 48 hours, 0.4 mM): 3/50
CN(C(=O)c1ccccc1)c1nccc(N2CCCCC2)n1 [Compound 604]		18.7 ± 4.1%	< 500 mg/kg	24.6 ± 2.9%				Number of cells in which neurites appeared/total number of cells ([2]; 24 hours, 0.02 mM): 6/50; Number of cells in which neurites appeared/total number of cells ([2]; 24 hours, 0.4 mM): 7/50; Number of cells in which neurites appeared/total number of cells ([2]; 48 hours, 0.02 mM): 2/50
CC1CCN(c2ccnc(N(C)C(=O)c3ccccc3)n2)CC1 [Compound 612]	19.1 ± 3.0%	19.4 ± 3.9%	500 to 1000 mg/kg	22.4 ± 2.4%		2/50	2/50	Number of cells having neurites with a length at least two times the diameter of each cell/total number of cells ([1]; 0.01 mM): 13.8 ± 1.5%
CN(C(=O)c1ccccc1)c1nccc(N2CCC(c3ccccc3)CC2)n1 [Compound 628]	10.2 ± 1.3%	13.4 ± 3.2%	500 to 1000 mg/kg	12.6 ± 3.2%	10.0 ± 3.9%	9/50	3/50	

From patent publication US5147876A, “2,6-di,2,4,6-, 2,5,6-tri and 2,4,5,6-tetra-substituted pyrimidines, their pharmaceutically acceptable salts, pharmaceutical compositions containing same and their use in the treatment of neurological diseases” (Mitsui Petrochemical Industries, Ltd., priority 1988, dated 1992)
